Reference: patent publication US12448399B2, “Cereblon-based KRAS degrading PROTACs and uses related thereto” (Arvinas Operations, Inc., priority 2023, dated 2025)

molecular target: T1, KRas-G12D (Homo sapiens, UniProt P01116, G12D); assay: HiBiT Degradation Assay (G12D), AsPC-1 HiBiT-KRasG12D cells, 24 hr; assay type: cell-based; settings: ASPC1, AsPC-1 cells, maximum degradation observed
T1 construct: insert the HiBiT tag onto the N-terminus of one or more of the endogenous KRas alleles; host or cells: AsPC-1 HiBiT-KRasG12D knock-in clone (one tagged allele, two untagged KRasG12D alleles)
Experimental: AsPC-1 (CRL-1682) cells were purchased from ATCC and are homozygous for the G12D mutation in KRas. AsPC-1 cells were cultured in GIBCO RPMI-1640 (ThermoFisher Scientific, catalog #61870-036, with Glutamax, no HEPES, no Na Pyruvate) supplemented with 10% FBS (ThermoFisher Scientific, catalog #2060357) and 1× Penicillin-Streptomycin (ThermoFisher Scientific, catalog #15140122, 10000 U/ml, 100×). For degradation assays, 384 well plates were used. Alamar blue was purchased from ThermoFisher Scientific (A50101) and used according to manufacturer instructions. The Nano-Glo® HiBiT Lytic Detection System and Nano-Glo® HiBiT Blotting System were purchased from Promega (#N3050 and #N2410) and used according to manufacturer instructions.
To create the AsPC-1 HiBiT-KRasG12D cell line, CRISPR-Cas9 was used to insert the HiBiT tag onto the N-terminus of one or more of the endogenous KRas alleles. See Schwinn, M. K. et al. (2018) CRISPR-mediated tagging of endogenous proteins with a luminescent peptide, ACS Chem. Biol. 13(2), 467-474. After knock-in of the tag, individual clones were isolated by single cell dilution and screened for HiBiT insertion by PCR. A clone was identified that contained the desired HiBiT-KRasG12D sequence at one allele while the remaining two KRasG12D alleles were untagged. This clone was used in further studies.
AsPC-1 HiBiT-KRasG12D cells were plated at 9000 or 15,000 cells/well in a 384 well plate (Corning #3770). Compounds of the present disclosure and positive controls were diluted in the appropriate cell media and applied to the plated cells resulting in a final concentration titration of 10 μM to […] in 0.5% DMSO. Gambogic acid was used as a positive control for cytotoxicity and titrated from 10 μM to 78 nM. All assays were performed in triplicate. Cells were treated with compounds for 24 hr at 37° C. in an incubator containing 5% CO2. Following treatment, alamar blue was used to determine if any compounds led to a loss in cell viability after 24 hr. The 10× alamar blue reagent was added to a final concentration of 1× as recommended by the manufacturer and cells were returned to the incubator for 4 hr. Plates were then allowed to equilibrate to RT and fluorescence was measured using a Perkin-Elmer EnVision. After completion of the fluorescence read, the liquid from each well was removed and the cells were washed with PBS. The Nano-Glo® HiBiT detection reagent was prepared according to the manufacturer's instructions and added to each well after the PBS wash was removed. Following incubation at room temperature for 45 min, the luminescence was read using the ultra-sensitive luminescence aperture on the Envision instrument.
Fluorescence values from the alamar blue treatment were normalized to the DMSO-only control for each compound titration. HiBiT luminescence was normalized to the DMSO-only control and the fractional HiBiT signal was plotted versus the log of the PROTAC concentration and fit to a 4-parameter dose-response model to obtain the concentration of the compound that leads to half maximal degradation (DC50) as well as the maximum degradation observed (Dmax, conventionally expressed as a percentage of control).

T1 sequence (P01116 1-188 isoform P01116-2 G12D): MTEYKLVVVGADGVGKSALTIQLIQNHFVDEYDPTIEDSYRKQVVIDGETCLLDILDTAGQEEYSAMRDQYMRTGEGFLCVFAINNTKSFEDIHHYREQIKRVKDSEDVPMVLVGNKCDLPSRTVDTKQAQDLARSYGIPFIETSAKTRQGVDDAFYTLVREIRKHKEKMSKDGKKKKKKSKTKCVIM

Row | Compound | Dmax
1 | CCc1cccc2cc(O)cc(-c3ncc4c(N5CC6CCC(C5)N6)nc(OC[C@]56CCCN5[C@@H](COC(=O)N5CCN(c7cccc8c7CN(C7CCC(=O)N(C)C7=O)C8=O)CC5)CC6)nc4c3F)c12 (stereo partly drawn) [Compound 54, [(3R,8R)-8-[[4-(3,8-diazabicyclo[3.2.1]octan-3-yl)-7-(8-ethyl-3-hydroxy-1-naphthyl)-8-fluoro-pyrido[4,3-d]pyrimidin-2-yl]oxymethyl]-1,2,3,5,6,7-hexahydropyrrolizin-3-yl]methyl4-[2-(1-methyl-2,6-dioxo-3-piperidyl)-1-oxo-isoindolin-4-yl]piperazine-1-carboxylate] | ≤ 25%
2 | CCc1cccc2cc(O)cc(-c3ncc4c(N5CC6CCC(C5)N6)nc(OCCN5CCC(CC6CCN(c7cccc8c7C(=O)N(C7CCC(=O)NC7=O)C8=O)CC6)CC5)nc4c3F)c12 (stereo not drawn) [Compound 66, 4-[4-[[1-[2-[4-(3,8-diazabicyclo[3.2.1]octan-3-yl)-7-(8-ethyl-3-hydroxy-1-naphthyl)-8-fluoro-pyrido[4,3-d]pyrimidin-2-yl]oxyethyl]-4-piperidyl]methyl]-1-piperidyl]-2-(2,6-dioxo-3-piperidyl)isoindoline-1,3-dione] | ≤ 25%

same assay, conditions: AsPC-1 cells

Row | Compound | DC50
3 | CCc1cccc2cc(O)cc(-c3ncc4c(N5CC6CCC(C5)N6)nc(OC[C@]56CCCN5[C@@H](COC(=O)N5CCN(c7cccc8c7CN(C7CCC(=O)N(C)C7=O)C8=O)CC5)CC6)nc4c3F)c12 (stereo partly drawn) [Compound 54, [(3R,8R)-8-[[4-(3,8-diazabicyclo[3.2.1]octan-3-yl)-7-(8-ethyl-3-hydroxy-1-naphthyl)-8-fluoro-pyrido[4,3-d]pyrimidin-2-yl]oxymethyl]-1,2,3,5,6,7-hexahydropyrrolizin-3-yl]methyl4-[2-(1-methyl-2,6-dioxo-3-piperidyl)-1-oxo-isoindolin-4-yl]piperazine-1-carboxylate] | 0.25 to 1 µM
4 | CCc1cccc2cc(O)cc(-c3ncc4c(N5CC6CCC(C5)N6)nc(OCCN5CCC(CC6CCN(CC7CCN(c8cccc9c8C(=O)N(C8CCC(=O)NC8=O)C9=O)CC7)CC6)CC5)nc4c3F)c12 (stereo not drawn) [Compound 57, 4-[4-[[4-[[1-[2-[4-(3,8-diazabicyclo[3.2.1]octan-3-yl)-7-(8-ethyl-3-hydroxy-1-naphthyl)-8-fluoro-pyrido[4,3-d]pyrimidin-2-yl]oxyethyl]-4-piperidyl]methyl]-1-piperidyl]methyl]-1-piperidyl]-2-(2,6-dioxo-3-piperidyl)isoindoline-1,3-dione] | 0.1 to 5.25 µM
5 | CCc1cccc2cc(O)cc(-c3ncc4c(N5CC6CCC(C5)N6)nc(OC[C@]56CCCN5[C@@H](COC(=O)N5CCN(c7ccc8c(c7)CN(C7CCC(=O)NC7=O)C8=O)CC5)CC6)nc4c3F)c12 (stereo partly drawn) [Compound 59, [(3R,8R)-8-[[4-(3,8-diazabicyclo[3.2.1]octan-3-yl)-7-(8-ethyl-3-hydroxy-1-naphthyl)-8-fluoro-pyrido[4,3-d]pyrimidin-2-yl]oxymethyl]-1,2,3,5,6,7-hexahydropyrrolizin-3-yl]methyl 4-[2-(2,6-dioxo-3-piperidyl)-1-oxo-isoindolin-5-yl]piperazine-1-carboxylate] | < 5.1 µM
6 | CCc1cccc2cc(O)cc(-c3ncc4c(N5CC6CCC(C5)N6)nc(OC[C@@]56CCCN5[C@H](COC(=O)N5CCN(c7cccc8c7CN(C7CCC(=O)NC7=O)C8=O)CC5)CC6)nc4c3F)c12 (stereo partly drawn) [Compound 60, [(3S,8S)-8-[[4-(3,8-diazabicyclo[3.2.1]octan-3-yl)-7-(8-ethyl-3-hydroxy-1-naphthyl)-8-fluoro-pyrido[4,3-d]pyrimidin-2-yl]oxymethyl]-1,2,3,5,6,7-hexahydropyrrolizin-3-yl]methyl 4-[2-(2,6-dioxo-3-piperidyl)-1-oxo-isoindolin-4-yl]piperazine-1-carboxylate] | 0.1 to 5.25 µM
7 | CCc1cccc2cc(O)cc(-c3ncc4c(N5CC6CCC(C5)N6)nc(OC[C@@]56CCCN5[C@H](COC(=O)N5CCN(c7ccc8c(c7)C(=O)N(C7CCC(=O)NC7=O)C8=O)CC5)CC6)nc4c3F)c12 (stereo partly drawn) [Compound 62, [(3S,8S)-8-[[4-(3,8-diazabicyclo[3.2.1]octan-3-yl)-7-(8-ethyl-3-hydroxy-1-naphthyl)-8-fluoro-pyrido[4,3-d]pyrimidin-2-yl]oxymethyl]-1,2,3,5,6,7-hexahydropyrrolizin-3-yl]methyl4-[2-(2,6-dioxo-3-piperidyl)-1,3-dioxo-isoindolin-5-yl]piperazine-1-carboxylate] | < 5.1 µM
8 | CCc1cccc2cc(O)cc(-c3ncc4c(N5CC6CCC(C5)N6)nc(OC[C@@]56CCCN5[C@H](COC(=O)N5CCN(c7cccc8c7C(=O)N(C7CCC(=O)NC7=O)C8=O)CC5)CC6)nc4c3F)c12 (stereo partly drawn) [Compound 64, [(3S,8S)-8-[[4-(3,8-diazabicyclo[3.2.1]octan-3-yl)-7-(8-ethyl-3-hydroxy-1-naphthyl)-8-fluoro-pyrido[4,3-d]pyrimidin-2-yl]oxymethyl]-1,2,3,5,6,7-hexahydropyrrolizin-3-yl]methyl 4-[2-(2,6-dioxo-3-piperidyl)-1,3-dioxo-isoindolin-4-yl]piperazine-1-carboxylate] | 0.1 to 5.25 µM
9 | CCc1cccc2cc(O)cc(-c3ncc4c(N5CC6CCC(C5)N6)nc(OCCN5CCC(CC6CCN(c7cccc8c7C(=O)N(C7CCC(=O)NC7=O)C8=O)CC6)CC5)nc4c3F)c12 (stereo not drawn) [Compound 66, 4-[4-[[1-[2-[4-(3,8-diazabicyclo[3.2.1]octan-3-yl)-7-(8-ethyl-3-hydroxy-1-naphthyl)-8-fluoro-pyrido[4,3-d]pyrimidin-2-yl]oxyethyl]-4-piperidyl]methyl]-1-piperidyl]-2-(2,6-dioxo-3-piperidyl)isoindoline-1,3-dione] | 0.25 to 1 µM

Continued, values first:

Row | DC50 | Compound
10 | < 5.1 µM | CCc1cccc2cc(O)cc(-c3ncc4c(N5CC6CCC(C5)N6)nc(OCCN5CCC(CC6CCN(CC7CCN(c8cccc9c8CN(C8CCC(=O)NC8=O)C9=O)CC7)CC6)CC5)nc4c3F)c12 (stereo not drawn) [Compound 55, 3-[4-[4-[[4-[[1-[2-[4-(3,8-diazabicyclo[3.2.1]octan-3-yl)-7-(8-ethyl-3-hydroxy-1-naphthyl)-8-fluoro-pyrido[4,3-d]pyrimidin-2-yl]oxyethyl]-4-piperidyl]methyl]-1-piperidyl]methyl]-1-piperidyl]-1-oxo-isoindolin-2-yl]piperidine-2,6-dione]
11 | 0.25 to 1 µM | CCc1cccc2cc(O)cc(-c3ncc4c(N5CC6CCC(C5)N6)nc(OCCN5CCC(CC6CCN(c7cccc8c7CN(C7CCC(=O)NC7=O)C8=O)CC6)CC5)nc4c3F)c12 (stereo not drawn) [Compound 56, 3-[4-[4-[[1-[2-[4-(3,8-diazabicyclo[3.2.1]octan-3-yl)-7-(8-ethyl-3-hydroxy-1-naphthyl)-8-fluoro-pyrido[4,3-d]pyrimidin-2-yl]oxyethyl]-4-piperidyl]methyl]-1-piperidyl]-1-oxo-isoindolin-2-yl]piperidine-2,6-dione]
12 | < 5.1 µM | CCc1cccc2cc(O)cc(-c3ncc4c(N5CC6CCC(C5)N6)nc(OC[C@@]56CCCN5[C@H](COC(=O)N5CCN(c7ccc8c(c7)CN(C7CCC(=O)NC7=O)C8=O)CC5)CC6)nc4c3F)c12 (stereo partly drawn) [Compound 58, [(3S,8S)-8-[[4-(3,8-diazabicyclo[3.2.1]octan-3-yl)-7-(8-ethyl-3-hydroxy-1-naphthyl)-8-fluoro-pyrido[4,3-d]pyrimidin-2-yl]oxymethyl]-1,2,3,5,6,7-hexahydropyrrolizin-3-yl]methyl 4-[2-(2,6-dioxo-3-piperidyl)-1-oxo-isoindolin-5-yl]piperazine-1-carboxylate]
13 | 0.25 to 1 µM | CCc1cccc2cc(O)cc(-c3ncc4c(N5CC6CCC(C5)N6)nc(OC[C@]56CCCN5[C@@H](COC(=O)N5CCN(c7cccc8c7CN(C7CCC(=O)NC7=O)C8=O)CC5)CC6)nc4c3F)c12 (stereo partly drawn) [Compound 61, [(3R,8R)-8-[[4-(3,8-diazabicyclo[3.2.1]octan-3-yl)-7-(8-ethyl-3-hydroxy-1-naphthyl)-8-fluoro-pyrido[4,3-d]pyrimidin-2-yl]oxymethyl]-1,2,3,5,6,7-hexahydropyrrolizin-3-yl]methyl 4-[2-(2,6-dioxo-3-piperidyl)-1-oxo-isoindolin-4-yl]piperazine-1-carboxylate]
14 | 0.25 to 1 µM | CCc1cccc2cc(O)cc(-c3ncc4c(N5CC6CCC(C5)N6)nc(OC[C@]56CCCN5[C@@H](COC(=O)N5CCN(c7ccc8c(c7)C(=O)N(C7CCC(=O)NC7=O)C8=O)CC5)CC6)nc4c3F)c12 (stereo partly drawn) [Compound 63, [(3R,8R)-8-[[4-(3,8-diazabicyclo[3.2.1]octan-3-yl)-7-(8-ethyl-3-hydroxy-1-naphthyl)-8-fluoro-pyrido[4,3-d]pyrimidin-2-yl]oxymethyl]-1,2,3,5,6,7-hexahydropyrrolizin-3-yl]methyl4-[2-(2,6-dioxo-3-piperidyl)-1,3-dioxo-isoindolin-5-yl]piperazine-1-carboxylate]
15 | 0.25 to 1 µM | CCc1cccc2cc(O)cc(-c3ncc4c(N5CC6CCC(C5)N6)nc(OC[C@]56CCCN5[C@@H](COC(=O)N5CCN(c7cccc8c7C(=O)N(C7CCC(=O)NC7=O)C8=O)CC5)CC6)nc4c3F)c12 (stereo partly drawn) [Compound 65, [(3R,8R)-8-[[4-(3,8-diazabicyclo[3.2.1]octan-3-yl)-7-(8-ethyl-3-hydroxy-1-naphthyl)-8-fluoro-pyrido[4,3-d]pyrimidin-2-yl]oxymethyl]-1,2,3,5,6,7-hexahydropyrrolizin-3-yl]methyl 4-[2-(2,6-dioxo-3-piperidyl)-1,3-dioxo-isoindolin-4-yl]piperazine-1-carboxylate]
